Data set [1] has as its system Pex7 null animals. Particulars: very high doses (over 3000 mg/kg); cited from earlier work.
The test system of data set [2] is Pex7 hypomorphic animals. Particulars: 50 mg/kg/day for 2 months; cited from earlier work.
The conditions of data set [3]: healthy animals; cited from earlier work.
In data set [4] the test system is Pex7 hypomorphic mice. Particulars: 13C-labeled version of PPI-1011; cited from earlier work.
The subject of data set [5] is Pex7 hypomorph/null mice. Kind of data set: 4 weeks oral treatment of Pex7 hypomorph/null animals: plasmalogen levels in plasma and tissues. Type of data set: in vivo, mouse. To be noted: 50 mg/kg oral gavage, 5 days per week. The text has this:
(§1) The Pex7 hypomorph/null model is a hypomorphic (B6;129S6-Pex7^tm2.3Brav/s9) mouse model on a mixed background (C57BL/6NCrl and 129S6/SvEvTac). The hypomorphic allele in Pex7 hypomorph/null was generated by inserting an inverse neo cassette into intron 2 and lox P sites surrounding exon 3. The Pex7 null allele was generated using (B6.C-Tg(cmv-cre)1Cgn/J) mouse. The Pex7 hypomorph/null mouse model has 90% survival, 0.016-0.257% of wild type Pex7 mRNA levels and 20-30% plasmalogen levels Pex7 hypomoprh/null mice (3-4 months); and wild-type animals, males and females included in treatments and behavioral tests. Pex7 hypomorph/null mice were randomly assigned, after a baseline open field test, into 3 treatment groups: PPI-1040, PPI-1011, and vehicle controls, n=6 mice per group). PPI-1011 or PPI-1040 at 50 mg/kg was given by oral gavage 5 days per week (Monday-Friday) for 4 weeks. During the treatment period, animals were weighed weekly and observed for signs of distress. The open field test was performed at the end of treatment. To avoid selection bias, data analysis was performed only at the study end. Animals were sacrificed after a 24-hour post the last dose.
Tissue samples frozen by submersion in liquid nitrogen were homogenized using the Covaris Cryoprep resulting in a fine powder. The powder was then aliquoted using anti-static polypropylene disposable milligram scoops (TWD Tradewinds) resulting in 4-6 mg of tissue per 1.4 ml Thermo matrix tubes. Weights were recorded and metabolite levels were normalized per mg of tissue. HPLC grade water (50 μl) was added into each tube and samples were snap frozen in liquid nitrogen and then stored at −80° C. until extraction. On the day of the extraction, tissue samples were thawed to room temperate and sonicated for 15 mins in an ice bath before mixing at 2000 rpm for a 5 minute and then adding 600 μL of ethyl acetate. Lipids were extracted into ethyl acetate by mixing at 1750 rpm for 1 hr followed by a 10 min centrifugation at 3500 rpm to obtain a clear ethyl acetate layer. Tissue lipid extracts were diluted into an ethyl acetate stock (brain regions diluted 1:10, peripheral tissues 1:5) containing labeled internal standard [^13C-PlsEtn (C37^13C6H74NO7P). Water (40 μL) was added to the diluted extracts and samples were stirred at 1500 rpm for 1 hr followed by a 2 min centrifugation at 3500 rpm.
Plasma extraction was performed on 20 μL aliquots in 1.4 ml Thermo matrix tubes. Lipids were extracted by adding HPLC grade water (50 μl) and ethyl acetate containing labeled internal standard [^13C-PlsEtn (C37^13C6H74NO7P) at 0.2 μg/mL (500 μL) to each plasma sample and then mixing at 1750 rpm for 1 hr followed by a 2 min centrifugation at 3500 rpm for phase separation.
A 100 μL aliquot of the ethyl acetate layer was analyzed using FI-MS/MS on a API4000™ mass spectrometer (Applied Biosystems) coupled with Agilent 1100 HPLC pump and auto sampler. Each transition was scanned for 50 ms with a total acquisition time per sample of 2 min. ethyl acetate:methanol:water ratio of 80:15:5 at a flow rate of 600 μL/min was used as the mobile phase. All standards and stable isotopes used were >95% pure and manufactured by Med-Life Discoveries LP. All the solvents used above were HPLC grade. All samples were analyzed in triplicate to control for any variation resulting from instrument variability. Stable isotope ratios for each analyte were calculated for all tissue and plasma samples (Table 2).

In data set [6] the test system is Pex7 homozygous hypomorphic animals (Pex7^neo/neo). Kind of data set: 2 week comparison of plasmalogen precursors: plasmalogen levels in plasma and liver (LC-MS). Type of data set: in vivo, mouse. As for the experimental part:
Pex7 homozygous hypomorphic animals (Pex7^neo/neo) were used as a model of rhizomelic chondrodysplasia punctata (RCDP). Mice were dosed with either PPI-1011 or PPI-1040 at equimolar concentrations of 100 mg/Kg and 89.7 mg/Kg respectively. PPI-1011 was formulated in Neobee M-5, at a concentration of 12.5 mg/mL and stored at −20° C. until the first treatment day after which point the remaining formulation was stored at 4° C. Oral gavage volumes were adjusted by mouse weight to ensure a 100 mg/kg dose. PPI-1040 was stored in a sealed ampoule in solution with dichloromethane under argon gas until immediately before use. At time of treatment the ampoule was opened and dichloromethane was evaporated off under nitrogen gas for 10 minutes. Neobee M-5 was then added and the solution and vortexed to generate a 22.4 mg/mL formulation. Animals were dosed via intraperitoneal injections with doses adjusted by weight to ensure an 89.7 mg/Kg dose to each animal. Animals were sacrificed 24 hours after the ninth treatment (week 1-Monday to Friday and week 2-Monday to Thursday). Blood samples were collected in EDTA tubes and then spun down in a clinical centrifuge. Plasma samples were stored at −80° C. until thawed for analysis. Tissue samples were harvested and flash frozen in liquid nitrogen and then stored at −80° C. All tissue samples were homogenized using liquid nitrogen, generating a fine powder.
Plasma aliquots of 20 μL were analyzed, while tissues were aliquoted with anti-static polypropylene disposable milligram scoops prior to analysis. Water (200 μL) was added and samples were ice bath sonicated for 30 mins prior to the addition of 600 μL of ethyl acetate. Samples were mixed at 2000 rpm for 15 mins followed by a 10 min centrifugation at 3500 rpm. Tissue samples were diluted into an ethyl acetate (1:4) containing labeled internal standards [^13C-PlsEtn (C37^13C6H74NO7P) and ^13C-PtdEtn (C24^13C19H74NO8P)]. Water (80 μL) was added and samples were again stirred at 2000 rpm for 15 mins followed by a 2 min centrifugation at 3500 rpm. High-throughput analysis method was based on multiple reaction monitoring of one parent/fragment transition for the ion pairs, performed using liquid chromatography-mass spectrometry.

The subject of data set [7] is Pex7 hypomorph/null mice. Kind of data set: Open field test after 4 weeks oral treatment. To be noted: 50 mg/kg oral gavage, 5 days per week, 5 minutes test. Type of data set: in vivo, mouse.
Description: as §1
The open field test is a behavioral test used to evaluate the general locomotor activity, exploratory and anxiety-like behaviour of mice in response to a novel environment. The animal is placed inside a custom made square, gray acrylic box measuring 40×40×40 cm and allowed to move freely for 5 minutes while being recorded by an overhead camera (camera model). The footage was analyzed by an automated tracking system (Any-maze Video Tracking Software, Stoelting Co, Wood Dale, Ill., USA), for total distance traveled (meters) & activity (mobility in seconds) time. The total distance traveled is the total distance that animal traveled during the test and the activity measures the amount of time the animal was active during the test.

[8] abbreviates: PPI-1011 100 mg/Kg oral or PPI-1040 89.7 mg/Kg intraperitoneal, 2 weeks.

Entries after “also recorded” stand apart in the source; their conditions may differ.

Take `CCCCCCCCCCCCCCCCCCOCC(O)CO` (racemic) [Batyl alcohol, 1-O-octadecyl-rac glycerol]: in data set [1], the “plasmalogen levels in brain and nervous system tissues” value is on record as “very limited increases”; the “plasmalogen levels in erythrocytes and peripheral tissues” value was “augmentation of plasmalogen levels in erythrocytes and peripheral tissues”. In data set [2], the clinical improvement entry is listed as “not associated with clinical improvement” and the “plasmalogen content in red blood cells” value is reported as “partial increase”.
In the case of `CC/C=C\C/C=C\C/C=C\C/C=C\C/C=C\C/C=C\CCC(=O)OC(COCCCCCCCCCCCCCCCC)COC(=O)CCCC[C@@H]1CCSS1` (stereo partly shown) [PPI-1011, reference compound], in data set [3], the oral bioavailability result is given as “orally bioavailable”; the “plasma and tissue PlsEtn levels” value was “capable of augmenting plasma and tissue PlsEtn levels”. Further, in data set [4], the “incorporation of labeled plasmalogen into nervous system tissue” value is recorded as “low”; the “incorporation of labeled plasmalogen into tissues” value is “incorporated into peripheral tissues, as well as the neocortex and eye”. Moreover, in data set [5], the liver plasmalogen levels entry is “did not increase the levels of any plasmalogen species in the liver”; the “plasma plasmalogen levels (all species measured)” value was “did not result in significant augmentation of any plasmalogen species measured; also recorded: ineffective at augmenting plasmalogen levels; also recorded: significantly below baseline”; the “plasmalogen levels in tissues (peripheral and brain)” value is given as “did not increase the levels of any plasmalogen species in any of the tissues tested”. Also, the “levels of the target plasmalogen (16:0/22:6) in the plasma” value in data set [6] (PPI-1011 100 mg/Kg oral gavage, 2 weeks (9 treatments)) was “increase observed”. In data set [6] (setting [8]), the “16:0 plasmalogen pool in liver” value is “no increase in this pool was observed” and the “target plasmalogen (16:0/22:6) levels in liver” value is “unable to augment levels to control levels”. Moreover, in data set [7], the “open field: time active” value is listed as “did not result in a decrease in activity levels” and the “open field: total distance traveled” value is “did not result in a decrease in activity levels”.

These data come from patent US11311560B2, “Cyclic plasmenylethanolamines” (MED-LIFE DISCOVERIES LP, priority 2017, dated 2022).
